Assay results reported in patent publication US20110178064A1, “SPIRO CONDENSED […] DERIVATIVES FOR USE AS ANTIBACTERIAL” (A[…]&D, priority 2007, published 2011).

Biological target: Escherichia coli DNA gyrase A/B tetramer (Escherichia coli, UniProt P0AES4+P0AES6)
Assay: DNA gyrase supercoiling activity fluorescence polarisation assay
Format: biochemical
Details: not given
Summary of the method: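 Gyrase supercoiling reactions quenched with 40 nM 5′-BODIPY-FL oligodeoxynucleotide triplex probe in pH 3.5 NaCl/sodium acetate buffer; fluorescence anisotropy read after 60 min (485/535 nm).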

Escherichia coli DNA gyrase A/B tetramer, sequence (P0AES4 whole entry, one chain of several): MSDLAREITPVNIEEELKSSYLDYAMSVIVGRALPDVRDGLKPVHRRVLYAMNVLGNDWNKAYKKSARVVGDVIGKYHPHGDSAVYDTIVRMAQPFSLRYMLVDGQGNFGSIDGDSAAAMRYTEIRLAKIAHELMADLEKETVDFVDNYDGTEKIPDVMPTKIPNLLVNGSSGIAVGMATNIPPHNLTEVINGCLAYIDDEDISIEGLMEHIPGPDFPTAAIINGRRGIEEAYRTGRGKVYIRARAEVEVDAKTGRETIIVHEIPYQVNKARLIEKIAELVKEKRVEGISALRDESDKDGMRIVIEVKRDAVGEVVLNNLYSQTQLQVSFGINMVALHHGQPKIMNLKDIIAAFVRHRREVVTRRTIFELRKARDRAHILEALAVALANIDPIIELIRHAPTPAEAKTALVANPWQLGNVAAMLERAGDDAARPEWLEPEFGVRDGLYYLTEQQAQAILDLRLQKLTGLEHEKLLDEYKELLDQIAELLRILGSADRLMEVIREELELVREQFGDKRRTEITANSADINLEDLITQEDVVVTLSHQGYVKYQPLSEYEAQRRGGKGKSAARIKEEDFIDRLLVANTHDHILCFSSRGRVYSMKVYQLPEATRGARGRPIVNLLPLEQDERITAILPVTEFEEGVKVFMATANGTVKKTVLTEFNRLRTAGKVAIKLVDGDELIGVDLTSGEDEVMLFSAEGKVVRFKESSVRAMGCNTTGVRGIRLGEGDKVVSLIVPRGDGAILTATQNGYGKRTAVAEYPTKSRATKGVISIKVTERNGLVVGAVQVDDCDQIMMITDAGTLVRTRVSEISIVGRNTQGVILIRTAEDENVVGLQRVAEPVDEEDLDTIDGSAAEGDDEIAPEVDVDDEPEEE

**Q.** How did the IC50 turn out when `C[C@@H]1CN2c3ncc(-c4ccccc4)cc3CC3(C(=O)NC(=O)NC3=O)[C@H]2[C@H](C)O1` (relative stereo) [Example 84, (6aS,7S,9R)-rel-7,9-Dimethyl-3-phenyl-6a,7,9,10-tetrahydro-2′H,5H-spiro[1,4-oxazino[4,3-a][1,8]naphthyridine-6,5′-pyrimidine]-2′,4′,6′(1′H,3′H)-trione] was run?
**A.** 7 µM

**Q.** How did the IC50 turn out when `C[C@@H]1CN2c3ccc(-c4nccs4)nc3CC3(C(=O)NC(=O)NC3=O)[C@H]2[C@H](C)O1` (relative stereo) [Example 85, (2R,4S,4aS)-rel-2,4-Dimethyl-8-(1,3-thiazol-2-yl)-1,2,4,4a-tetrahydro-2′H,6H-spiro[1,4-oxazino[4,3-a][1,5]naphthyridine-5,5′-pyrimidine]-2′,4′,6′(1′H,3′H)-trione] was run?
**A.** 8 µM

**Q.** With `C[C@@H]1CN2c3ncc(-c4nc5ccccc5s4)cc3CC3(C(=O)NC(=O)NC3=O)[C@H]2[C@H](C)O1` (relative stereo) [Example 87, (6aS,7S,9R)-rel-3-(1,3-Benzothiazol-2-yl)-7,9-dimethyl-6a,7,9,10-tetrahydro-2′H,5H-spiro[1,4-oxazino[4,3-a][1,8]naphthyridine-6,5′-pyrimidine]-2′,4′,6′(1′H,3′H)-trione] as the molecule, how does the IC50 read?
**A.** 4 µM

**Q.** How did the IC50 turn out when `C[C@@H]1CN2c3ccc(-c4nc5ccccc5s4)nc3CC3(C(=O)NC(=O)NC3=O)[C@H]2[C@H](C)O1` (relative stereo) [Example 88, (2R,4S,4aS)-rel-8-(1,3-Benzothiazol-2-yl)-2,4-dimethyl-1,2,4,4a-tetrahydro-2′H,6H-spiro[1,4-oxazino[4,3-a][1,5]naphthyridine-5,5′-pyrimidine]-2′,4′,6′(1′H,3′H)-trione] was run?
**A.** 2 µM

**Q.** `C[C@@H]1CN2c3cnc(-c4nc5ccccc5s4)cc3CC3(C(=O)NC(=O)NC3=O)[C@H]2[C@H](C)O1` (relative stereo) [Example 89, (6aS,7S,9R)-rel-3-(1,3-benzothiazol-2-yl)-7,9-dimethyl-6a,7,9,10-tetrahydro-2′H,5H-spiro[1,4-oxazino[4,3-a][1,7]naphthyridine-6,5′-pyrimidine]-2′,4′,6′(1′H,3′H)-trione] was tested. Which IC50 did it give?
**A.** 11 µM

**Q.** With `C[C@@H]1CN2c3ncc(-c4cncn4C)cc3CC3(C(=O)NC(=O)NC3=O)[C@H]2[C@H](C)O1` (relative stereo) [Example 90, (6aS,7S,9R)-rel-7,9-Dimethyl-3-(1-methyl-1H-imidazol-5-yl)-6a,7,9,10-tetrahydro-2′H,5H-spiro[1,4-oxazino[4,3-a][1,8]naphthyridine-6,5′-pyrimidine]-2′,4′,6′(1′H,3′H)-trione] as the molecule, how does the IC50 read?
**A.** 21 µM

**Q.** For `COc1nccnc1-c1cnc2c(c1)CC1(C(=O)NC(=O)NC1=O)[C@H]1[C@H](C)O[C@H](C)CN21` (relative stereo) [Example 92, (6aS,7S,9R)-rel-3-(3-Methoxypyrazin-2-yl)-7,9-dimethyl-6a,7,9,10-tetrahydro-2′H,5H-spiro[1,4-oxazino[4,3-a][1,8]naphthyridine-6,5′-pyrimidine]-2′,4′,6′(1′H,3′H)-trione], which IC50 is on record?
**A.** 20 µM

Same assay, conditions: E. coli DNA gyrase supercoiling; asterisk: no IC50 obtained at or below the indicated concentration; read-out: IC50

**Q.** How did the IC50 turn out when `COc1nccnc1-c1cc2c(cn1)N1C[C@@H](C)O[C@@H](C)[C@@H]1C1(C2)C(=O)NC(=O)NC1=O` (relative stereo) [Example 93, (6aS,7S,9R)-rel-3-(3-Methoxypyrazin-2-yl)-7,9-dimethyl-6a,7,9,10-tetrahydro-2′H,5H-spiro[1,4-oxazino[4,3-a][1,7]naphthyridine-6,5′-pyrimidine]-2′,4′,6′(1′H, 3H)-trione] was run?
**A.** > 83 µM

**Q.** `C[C@@H]1CN2c3ncc(-c4ccnnc4)cc3CC3(C(=O)NC(=O)NC3=O)[C@H]2[C@H](C)O1` (relative stereo) [Example 94, (6aS,7S,9R)-rel-7,9-Dimethyl-3-(pyridazin-4-yl)-6a,7,9,10-tetrahydro-2′H,5H-spiro[1,4-oxazino[4,3-a][1,8]naphthyridine-6,5′-pyrimidine]-2′,4′,6′(1′H, 3H)-trione] was tested. Which IC50 did it give?
**A.** 7 µM
